What was measured:
[1] = target: recombinant JAK2 (amino acids 831-1132) (Homo sapiens (Human), UniProt O60674); assay: Enzyme inhibition studies, JAK2 (5 mM ATP, Caliper); type: biochemical
Protocol: (§1) JAK enzyme was expressed as N-terminal GST fusion in insect cells and purified by glutathione-affinity and size-exclusion chromatographies. Enzymes were assayed at their approximated high end of physiological ATP concentration of 5 mM, in the presence of inhibitor dosed at 30, 3, 0.3, 0.03, 0.003 and 0 μM final test concentrations.
(§2) Phosphorylated and unphosphotylated peptides were separated and quantified by a Caliper LC3000 system (Caliper Life Sciences, MA) for calculating percent inhibition.

[2] = target: recombinant JAK1 (amino acids 866-1154) (Homo sapiens (Human), UniProt P23458); assay: Enzyme inhibition studies, JAK1 (5 mM ATP, Caliper); type: biochemical
Sequence of recombinant JAK1 (amino acids 866-1154) (P23458 866-1154): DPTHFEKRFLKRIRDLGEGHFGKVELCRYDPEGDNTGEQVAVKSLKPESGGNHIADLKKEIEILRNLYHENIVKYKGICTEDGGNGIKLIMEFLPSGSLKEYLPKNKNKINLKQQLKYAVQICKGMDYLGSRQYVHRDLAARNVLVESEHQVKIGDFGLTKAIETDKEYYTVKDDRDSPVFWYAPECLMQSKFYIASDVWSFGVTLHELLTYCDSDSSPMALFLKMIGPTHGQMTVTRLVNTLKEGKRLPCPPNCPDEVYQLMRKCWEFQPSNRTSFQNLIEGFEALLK
Protocol: as §1, §2

[3] = target: recombinant JAK3 (amino acids 781-1124) (Homo sapiens (Human), UniProt P52333); assay: Enzyme inhibition studies, JAK3 (5 mM ATP, Caliper); type: biochemical
Sequence of recombinant JAK3 (amino acids 781-1124) (P52333 781-1124): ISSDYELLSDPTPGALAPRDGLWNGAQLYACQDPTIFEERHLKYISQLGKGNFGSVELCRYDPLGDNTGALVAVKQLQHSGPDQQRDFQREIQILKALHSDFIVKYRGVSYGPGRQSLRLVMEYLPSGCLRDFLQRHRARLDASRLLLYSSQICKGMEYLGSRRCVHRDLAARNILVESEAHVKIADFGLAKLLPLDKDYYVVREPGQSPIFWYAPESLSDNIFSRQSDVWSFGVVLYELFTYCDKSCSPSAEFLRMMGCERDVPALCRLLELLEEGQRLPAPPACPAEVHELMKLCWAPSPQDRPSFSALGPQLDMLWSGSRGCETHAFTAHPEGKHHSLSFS
Protocol: as §1, §2

[4] = tested on: IL-13 induced STAT6 promotor luciferase reporter in U937 monocytes (U937-STAT6-Luc); assay: Cellular interleukin (IL-13) induced JAK-STAT6-luciferase assay (pSTAT6); type: cell-based; conditions: Homo sapiens, U-937; IL-13 induced STAT6-luciferase, U937-STAT6-Luc cells
Protocol: Cells were harvested by centrifugation at 250 g for 5 min and resuspended in Assay buffer (20 mM HEPES, 1×HBSS and 0.1% BSA) to 1000 cells pr μl. For stimulation of cells was used interleukin (IL-13) also dissolved in Assay buffer to […]. […] Test and control compounds were applied to assay plates (low vol white 384-well plates) in serial dilutions from 10 mM to 0.5 nM at 5 nl pr well in DMSO.
To each well was added 4 μl cells and 4 μl interleukin (IL-13) and the plates were sealed and incubated at 37° C. for 4½ h and then at room temperature for 30 min. The assay was developed by addition of 4 μl pr well of SteadyGlo (Promega) and after […] the plates were read at an Envision plate reader with luminescence filter.

Sequence of recombinant JAK2 (amino acids 831-1132) (O60674 831-1132): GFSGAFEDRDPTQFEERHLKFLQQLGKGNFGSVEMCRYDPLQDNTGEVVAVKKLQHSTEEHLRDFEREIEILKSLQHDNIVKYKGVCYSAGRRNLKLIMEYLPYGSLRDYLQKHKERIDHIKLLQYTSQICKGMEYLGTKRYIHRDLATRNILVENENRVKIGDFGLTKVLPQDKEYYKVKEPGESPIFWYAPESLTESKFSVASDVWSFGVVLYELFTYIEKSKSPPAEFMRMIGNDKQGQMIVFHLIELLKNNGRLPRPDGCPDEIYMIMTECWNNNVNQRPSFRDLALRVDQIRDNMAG

Compound | IC50 [1] [µM] | IC50 [2] [nM] | IC50 [3] [µM] | IC50 [4] [nM]
CC[C@@H](C(=O)Nc1cccc2c(-c3nc(Nc4cccc(S(C)(=O)=O)c4F)ncc3C)c[nH]c12)N1CCN(C)CC1 [Example 13, (S)-N-(3-(2-((2-fluoro-3-(methylsulfonyl)phenyl)amino)-5-methylpyrimidin-4-yl)-1H-indol-7-yl)-2-(4-methylpiperazin-1-yl)butanamide] | 26.1 | 22.4 | > 30 | 97
CC[C@H](C(=O)Nc1cccc2c(-c3nc(Nc4cccc(S(C)(=O)=O)c4F)ncc3C)c[nH]c12)N1CCN(C)CC1 [Example 14, (R)-N-(3-(2-((2-fluoro-3-(methylsulfonyl)phenyl)amino)-5-methylpyrimidin-4-yl)-1H-indol-7-yl)-2-(4-methylpiperazin-1-yl)butanamide] | 2.43 | < 3 | > 30 | 21
CC[C@H](C(=O)Nc1cccc2c(-c3nc(Nc4cccc(S(C)(=O)=O)c4F)ncc3F)c[nH]c12)N1CCCN(C)CC1 [Example 17] | 4.86 | 3.6 | > 30 | 90
CC[C@@H](C(=O)Nc1cccc2c(-c3nc(Nc4cccc(S(C)(=O)=O)c4F)ncc3F)c[nH]c12)N1CCCN(C)CC1 [Example 18] | > 30 | 403 | > 30 | 1280

Results, then the molecule that gave them:

IC50 [1] [µM] | IC50 [2] [nM] | IC50 [3] [µM] | IC50 [4] [nM] | Compound
14.5 | 6.6 | > 30 | 57 | Cc1cnc(Nc2cccc(S(C)(=O)=O)c2F)nc1-c1c[nH]c2c(NC(=O)[C@@H](C)N3C[C@H](C)N(C)[C@@H](C)C3)cccc12 [Example 7, (R)-N-(3-(2-((2-fluoro-3-(methylsulfonyl)phenyl)amino)-5-methylpyrimidin-4-yl)-1H-indol-7-yl)-2-((3S,5S)-3,4,5-trimethylpiperazin-1-yl)propanamide]
> 30 | 24.5 | > 30 | 78 | C[C@H](C(=O)Nc1cccc2c(-c3nc(Nc4cccc(S(C)(=O)=O)c4F)ncc3F)c[nH]c12)N1C[C@H](C)N(C)[C@@H](C)C1 [Example 8, (R)-N-(3-(5-fluoro-2-((2-fluoro-3-(methylsulfonyl)phenyl)amino)pyrimidin-4-yl)-1H-indol-7-yl)-2-((3S,5S)-3,4,5-trimethylpiperazin-1-yl)propanamide]
21 | 39.8 | > 30 | 352 | Cc1cnc(Nc2cccc(S(C)(=O)=O)c2F)nc1-c1c[nH]c2c(NC(=O)[C@H](C)N3C[C@H](C)N[C@@H](C)C3)cccc12 [Example 10, (S)-2-((3S,5S)-3,5-dimethylpiperazin-1-yl)-N-(3-(2-((2-fluoro-3-(methylsulfonyl)phenyl)amino)-5-methylpyrimidin-4-yl)-1H-indol-7-yl)propanamide]
11.1 | 13.1 | > 30 | 85 | C[C@H](C(=O)Nc1cccc2c(-c3nc(Nc4cccc(S(C)(=O)=O)c4F)ncc3F)c[nH]c12)N1C[C@H](C)N[C@@H](C)C1 [Example 11, (R)-2-((3S,5S)-3,5-dimethylpiperazin-1-yl)-N-(3-(5-fluoro-2-((2-fluoro-3-(methylsulfonyl)phenyl)amino)pyrimidin-4-yl)-1H-indol-7-yl)propanamide]
> 30 | 1130 | > 30 | > 4950 | C[C@H]1CN([C@@H](C)C(=O)Nc2cccc3c(-c4nc(Nc5cccc(S(C)(=O)=O)c5F)ncc4F)c[nH]c23)C[C@H](C)N1 [Example 12, (S)-2-((3S,5S)-3,5-dimethylpiperazin-1-yl)-N-(3-(5-fluoro-2-((2-fluoro-3-(methylsulfonyl)phenyl)amino)pyrimidin-4-yl)-1H-indol-7-yl)propanamide]

Source: patent US10961228B2, “JAK1 selective inhibitors” (AstraZeneca AB, priority 2017, dated 2021)
